# pKd: −log10 of the molar value.
# Biological target: human serum albumin (HSA) (Homo sapiens, UniProt P02768)
# Assay: zonal elution, high-performance affinity chromatography on entrapped HSA
# Format: binding
# Chain of human serum albumin (HSA) (P02768 25-609): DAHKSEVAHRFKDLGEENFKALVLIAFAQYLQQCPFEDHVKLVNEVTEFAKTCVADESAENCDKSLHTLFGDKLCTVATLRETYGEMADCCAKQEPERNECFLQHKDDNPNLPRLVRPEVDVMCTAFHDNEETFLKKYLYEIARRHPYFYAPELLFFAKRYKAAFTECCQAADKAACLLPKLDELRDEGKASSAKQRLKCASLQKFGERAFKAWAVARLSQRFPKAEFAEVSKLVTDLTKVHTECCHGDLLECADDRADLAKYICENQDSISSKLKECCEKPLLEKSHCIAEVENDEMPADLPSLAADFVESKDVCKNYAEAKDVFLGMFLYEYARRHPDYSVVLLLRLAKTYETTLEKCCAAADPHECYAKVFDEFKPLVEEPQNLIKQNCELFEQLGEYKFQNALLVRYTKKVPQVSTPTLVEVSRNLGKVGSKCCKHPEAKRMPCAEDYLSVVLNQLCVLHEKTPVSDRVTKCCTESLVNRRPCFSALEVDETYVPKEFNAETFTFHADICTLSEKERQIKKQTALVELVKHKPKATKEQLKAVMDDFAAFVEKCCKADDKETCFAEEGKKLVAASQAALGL
row,SMILES,pKd
1,CNCCC=C1c2ccccc2CCc2ccccc21 [nortriptyline],4.79
2,O=C(N[C@H](CO)[C@H](O)c1ccc([N+](=O)[O-])cc1)C(Cl)Cl [chloramphenicol],3.20
3,CN(C)CCC=C1c2ccccc2CCc2ccccc21 [amitriptyline],4.75
